The text below walks through data of patent US5919784A, “Heterocyclic aminomethyl compounds” (Adir Et Compagnie, priority 1996, dated 1999).

Where a name gives a salt, the structure may show the parent alone.

Test [1] deals with T1, human D4.4 receptor (Homo sapiens, UniProt P21917).
T1 construct: purchased Receptor Biology Inc. (Md., USA); host or cells: CHO cells (transfected), membranes
T1 sequence (P21917 1-419): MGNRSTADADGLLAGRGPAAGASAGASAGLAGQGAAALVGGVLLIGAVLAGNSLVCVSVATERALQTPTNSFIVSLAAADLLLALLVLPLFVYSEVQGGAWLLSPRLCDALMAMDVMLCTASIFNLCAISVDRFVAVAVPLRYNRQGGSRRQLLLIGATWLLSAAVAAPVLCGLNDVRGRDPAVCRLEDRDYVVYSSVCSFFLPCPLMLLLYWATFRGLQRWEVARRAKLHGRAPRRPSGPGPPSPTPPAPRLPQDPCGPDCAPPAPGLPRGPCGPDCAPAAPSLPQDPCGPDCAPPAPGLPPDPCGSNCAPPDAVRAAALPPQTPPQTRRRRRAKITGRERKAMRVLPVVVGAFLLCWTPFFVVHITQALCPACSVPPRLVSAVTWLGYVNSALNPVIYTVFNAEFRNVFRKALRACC
Briefly: Antagonism at human D4.4 receptors, [35S]GTPγS binding (G protein activation) stimulated by dopamine. The class given is biochemical. The settings on record: antagonism of dopamine-stimulated [35S]GTPγS binding; antagonist preincubated with fixed concentration of dopamine 30 min; CHO membranes; read-out: Kb (antagonist potency constant). As to the method:
The efficacy was determined by measuring the activation of G proteins by stimulating the binding of [^35 S]GTPγS (NEN, Les Ulis, France). The membranes prepared from CHO cells transfected with the human D4.4 receptor were purchased from Receptor Biology Inc. (Md., USA). The membranes (50 μg of membrane protein) are incubated in triplicate with 0.1 nM [^35 S]GTPγS and the cold ligand in a final volume of 0.5 ml for 20 min at 25° C. The incubation buffer contains 20 mM HEPES (pH 7.4), 3 μM GDP, 3 mM MgCl2 and 100 mM NaCl. At the end of the incubation, the incubation medium is filtered through WHATMAN GF/B filters impregnated with water and washed three times with 2 ml of cooled buffer. The radioactivity retained on the filters is determined by liquid scintillation counting. The binding isotherms are analyzed by nonlinear regression using `PRISM` software (GraphPad Software Inc., S. Diego, USA) to determine EC50 and efficacy (Emax) values. The efficacy is expressed as a percentage of the stimulation of the binding of [^35 S]GTPγS induced by dopamine.
For the tests of antagonism, the membranes are preincubated with the antagonist at a fixed concentration of dopamine for 30 min before adding the [^35 S]GTPγS. […]
in which [Antagonist] is the antagonist concentration and EC50 is the EC50 determined in the absence of antagonist (dopamine alone).

Test [2] relates to D4 receptors. The note with it: literature; cited from earlier work.

As for `COc1ccccc1N1CCN(Cc2ccc3c(c2)sc(=O)n3C)CC1` [Example 1, 3-METHYL-6-[(4-(2-METHOXYPHENYL)-1-PIPERAZINYL)METHYL]-BENZOTHIAZOLINONE HYDROCHLORIDE], the Kb (as a rule, the affinity of an antagonist, worked out from how it opposes an agonist) in test [1] stood at 2.39 ± 1.1 nM.
Same read-out and setting: with `Cn1c(=O)sc2cc(CN3CCN(c4ccccc4F)CC3)ccc21` [Example 3, 3-METHYL-6-[(4-(2-FLUOROPHENYL)-1-PIPERAZINYL)METHYL]-BENZOTHIAZOLINONE] the figure was 16.1 ± 5 nM.
`CN1CCN(C2=Nc3cc(Cl)ccc3Nc3ccccc32)CC1` [clozapine]: the “affinity for the D4 receptors (in words)” value in test [2] is reported as “high affinity”.
Take `NC[C@H](O)c1ccc(O)c(O)c1` [noradrenaline]: in test [2], the “affinity for the D4 receptors (in words)” value is reported as “high affinity”.
